Measurements taken from patent US8927015B2, “Formulations for delivering insulin” (Emisphere Technologies, Inc., priority 2006, dated 2015).
Blank lines part the entries; values can stand above or below the compound they belong to.

Tests used:
[1] = Solubility of insulin in aqueous solutions containing a delivery agent
Experimental: The solubility of insulin was investigated in aqueous solutions containing varying amounts of the delivery agent compound sodium 4-CNAB. The aqueous solution containing delivery agent was adjusted to pH 1 by the addition of 1N HCl and excess insulin was added to the acidified solution. Thereafter, the pH of the solution was increased by the addition of increments of 1N NaOH. Vials containing the suspensions were left without shaking or sonicating for 1-2 hours. The supernatant was analyzed for insulin and sodium 4-CNAB using an HPLC method and the pH was recorded. […] All of these experiments were performed at room temperature.

[2] = Dissolution of insulin pellet (USP Dissolution Type II paddle); type: physicochemical
Experimental: A 300 mg pellet of insulin was prepared in a die. The surface area of the pellet available to the dissolution medium was 0.484 cm^2. The pellet was compressed at 1200-1400 lbs on a Carver press to form discs. The die was then attached to the shaft of a dissolution apparatus (USP Dissolution Type II (Paddle) made by Vankel). The die was rotated at 100 rpm and then immersed in 500 mL of degassed dissolution medium maintained at 37° C. Dissolution experiments were conducted in water and in aqueous solutions containing sodium 4-CNAB. Samples of the solutions were taken over two hours and analyzed by HPLC. FIGS. 3 and 4 show dissolution profiles of insulin in deionized (DI) water and in 10 mg/mL sodium 4-CNAB solution, respectively.

[3] = for Solubility: pH 6.8
Experimental: Excess insulin was added to buffer solutions at pH values of 1, 2, 3, 4, 5, 6, 6.8, and 7.4. Vials containing the solutions were shaken in a constant temperature water bath, and visually observed at regular time intervals. Samples were taken at 2 hours, 4 hours, and 24 hours and analyzed by a stability-indicating HPLC method.

Compound: Insulin: insulin (recombinant human insulin) whose solubility and dissolution were tested
Insulin ([1]; None (DI water), pH 6.3, room temperature): 1.14 mg/mL
rate of insulin dissolution ([2]; 10 mg/mL sodium 4-CNAB dissolution media versus deionized water, 37° C., 100 rpm): significantly greater
insulin levels in dissolution media ([2]; 50 mg/ml sodium 4-CNAB dissolution media, HPLC): below the detection limits

Compound: insulin type #1: recombinant human zinc insulin obtained from Diosynth France
dissolution rate, visual observation ([3]; not observed at pH 1, 2, and 7.4 where dissolution was very rapid for both): dissolved faster than insulin type #2
Solubility [3]: greater than 4 mg/mL

Compound: insulin type #2: recombinant human zinc insulin obtained from Eli Lilly Co.
Solubility [3]: > 2000 µg/mL

Now from value to compound:

Insulin ([1]; delivery agent 250 mg/mL, pH 3.9, room temperature): >50 mg/mL
Compound: OCCN(CCO)CCCCCCCCOc1ccccc1O [HPOD, 8-(2-hydroxyphenoxy)octyldiethanolamine]

Insulin ([1]; delivery agent 150 mg/mL, pH 7.9, room temperature): >200 mg/mL
Compound: O=C(O)CCCCCCCNC(=O)c1ccccc1O [SNAC, N-(8-[2-hydroxybenzoyl]-amino) caprylic acid]

Insulin ([1]; delivery agent 5 mg/mL, pH of delivery agent solution 6.4, room temperature): 0.5 mg/mL
Insulin ([1]; delivery agent 10 mg/mL, pH 6.45, room temperature): 1 mg/mL
Insulin ([1]; delivery agent 50 mg/mL, pH 6.26, room temperature): 11 mg/mL
Insulin ([1]; delivery agent 50 mg/mL, pH 6.49, room temperature): 44 mg/mL
Insulin ([1]; delivery agent 100 mg/mL, pH 6.45, room temperature): >110 mg/mL
Insulin ([1]; delivery agent 100 mg/mL, pH 6.71, room temperature): 86 mg/mL
Insulin ([1]; delivery agent 150 mg/mL, pH 6.83, room temperature): 187 mg/mL
Insulin ([1]; delivery agent 200 mg/mL, pH 6.79, room temperature): >135 mg/mL
Compound: O=C(O)CCCNC(=O)c1ccc(Cl)cc1O [Treatment 4-CNAB, 4-[(2-hydroxy-4-chlorobenzoyl)amino]butanoate]
